Source: the supplement of paper PMC10307832

Assays:
Experiment in all cases: relative viability (nuclei count vs DMSO), 5 days (fraction); higher = more cells survive
NCI-H727 = tested on: NCI-H727
Procedure, shortened: (§1)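 Relative viability was taken as the ratio of nuclei in treated wells to nuclei in vehicle wells. Lung cancer cell lines in 1536-well plates received compounds by pin tool one day after seeding, either one drug alone or a fixed anchor-drug dose plus five library-drug doses (not always all listed) in √10 steps. Nuclei were counted on 4× images after 5 days of treatment, and values are medians of duplicate plates.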

NCI-H358 = tested on: NCI-H358
Procedure, shortened: as §1

NCI-H2405 = tested on: NCI-H2405
Procedure, shortened: as §1

H3255 = tested on: H3255
Procedure, shortened: as §1

NCI-H23 = tested on: NCI-H23
Procedure, shortened: as §1

NCI-H1666 = tested on: NCI-H1666
Procedure, shortened: as §1

NCI-H2347 = tested on: NCI-H2347
Procedure, shortened: as §1

NCI-H520 = tested on: NCI-H520
Procedure, shortened: as §1

NCI-H1437 = tested on: NCI-H1437
Procedure, shortened: as §1

NCI-H1648 = tested on: NCI-H1648
Procedure, shortened: as §1

NCI-H3122 = tested on: NCI-H3122
Procedure, shortened: as §1

UMC-11 = tested on: UMC-11
Procedure, shortened: as §1

NCI-H2009 = tested on: NCI-H2009
Procedure, shortened: as §1

SK-LU-1 = tested on: SK-LU-1
Procedure, shortened: as §1

NCI-H1650 = tested on: NCI-H1650
Procedure, shortened: as §1

NCI-H322M = tested on: NCI-H322M
Procedure, shortened: as §1

NCI-H2087 = tested on: NCI-H2087
Procedure, shortened: as §1

NCI-H2126 = tested on: NCI-H2126
Procedure, shortened: as §1

ChaGo-K-1 = tested on: ChaGo-K-1
Procedure, shortened: as §1

BEN = tested on: BEN
Procedure, shortened: as §1

A-427 = tested on: A-427
Procedure, shortened: as §1

NCI-H441 = tested on: NCI-H441
Procedure, shortened: as §1

EKVX = tested on: EKVX
Procedure, shortened: as §1

NCI-H1755 = tested on: NCI-H1755
Procedure, shortened: as §1

For `C=C1C(=O)O[C@@H](CCCCCCCC)[C@@H]1C(=O)O` [C-75] + O=C(c1cc(Cc2n[nH]c(=O)c3ccccc23)ccc1F)N1CCN(C(=O)C2CC2)CC1 [Olaparib] (partner 8 µM), the relative viability (NCI-H727; first compound 0.08 µM) was 0.69, the relative viability (NCI-H727; first compound 0.253 µM) was 0.865 and the relative viability (NCI-H727; first compound 0.8 µM) was 0.671. It also gave a relative viability (NCI-H727; first compound 2.53 µM) of 0.371, a relative viability (NCI-H727; first compound 8 µM) of 0.636 and a relative viability (NCI-H358; first compound 0.08 µM) of 0.642. The relative viability (NCI-H358; first compound 0.253 µM) was 0.623, the relative viability (NCI-H358; first compound 0.8 µM) was 0.534 and the relative viability (NCI-H358; first compound 8 µM) was 0.575. The relative viability (NCI-H2405; first compound 0.08 µM) was 0.808, the relative viability (NCI-H2405; first compound 0.253 µM) was 0.734 and the relative viability (NCI-H2405; first compound 0.8 µM) was 0.879. It also gave a relative viability (NCI-H2405; first compound 2.53 µM) of 0.803, a relative viability (NCI-H2405; first compound 8 µM) of 0.852 and a relative viability (H3255; first compound 0.08 µM) of 0.629. It also gave a relative viability (H3255; first compound 0.253 µM) of 0.581, a relative viability (H3255; first compound 0.8 µM) of 0.583 and a relative viability (H3255; first compound 2.53 µM) of 0.537. For the same compound, the relative viability (H3255; first compound 8 µM) was 0.573, the relative viability (NCI-H23; first compound 0.08 µM) was 0.364 and the relative viability (NCI-H23; first compound 0.253 µM) was 0.334. For the same compound, the relative viability (NCI-H23; first compound 0.8 µM) was 0.239, the relative viability (NCI-H23; first compound 2.53 µM) was 0.555 and the relative viability (NCI-H23; first compound 8 µM) was 0.24. The relative viability (NCI-H1666; first compound 0.08 µM) was 0.681, the relative viability (NCI-H1666; first compound 0.253 µM) was 0.79 and the relative viability (NCI-H1666; first compound 0.8 µM) was 0.678. For the same compound, the relative viability (NCI-H1666; first compound 8 µM) was 0.653, the relative viability (NCI-H2347; first compound 0.08 µM) was 0.552 and the relative viability (NCI-H2347; first compound 0.253 µM) was 0.514. The relative viability (NCI-H2347; first compound 0.8 µM) was 0.532, the relative viability (NCI-H2347; first compound 2.53 µM) was 0.539 and the relative viability (NCI-H2347; first compound 8 µM) was 0.614. It also gave a relative viability (NCI-H520; first compound 0.08 µM) of 0.343, a relative viability (NCI-H520; first compound 0.253 µM) of 0.358 and a relative viability (NCI-H520; first compound 0.8 µM) of 0.269. The relative viability (NCI-H520; first compound 2.53 µM) was 0.321, the relative viability (NCI-H520; first compound 8 µM) was 0.257 and the relative viability (NCI-H1437; first compound 0.08 µM) was 0.614. For the same compound, the relative viability (NCI-H1437; first compound 0.253 µM) was 0.684, the relative viability (NCI-H1437; first compound 0.8 µM) was 0.642 and the relative viability (NCI-H1437; first compound 8 µM) was 0.648. It also gave a relative viability (NCI-H1648; first compound 0.08 µM) of 0.921, a relative viability (NCI-H1648; first compound 0.253 µM) of 1.3 and a relative viability (NCI-H1648; first compound 0.8 µM) of 0.597. For the same compound, the relative viability (NCI-H1648; first compound 8 µM) was 1.03, the relative viability (NCI-H3122; first compound 0.08 µM) was 0.662 and the relative viability (NCI-H3122; first compound 0.253 µM) was 0.636. It also gave a relative viability (NCI-H3122; first compound 0.8 µM) of 0.567, a relative viability (NCI-H3122; first compound 2.53 µM) of 0.51 and a relative viability (NCI-H3122; first compound 8 µM) of 0.635. It also gave a relative viability (UMC-11; first compound 0.08 µM) of 0.37, a relative viability (UMC-11; first compound 0.253 µM) of 0.38 and a relative viability (UMC-11; first compound 0.8 µM) of 0.352. For the same compound, the relative viability (UMC-11; first compound 2.53 µM) was 0.27, the relative viability (UMC-11; first compound 8 µM) was 0.335 and the relative viability (NCI-H2009; first compound 0.08 µM) was 0.67. For the same compound, the relative viability (NCI-H2009; first compound 0.253 µM) was 0.654, the relative viability (NCI-H2009; first compound 0.8 µM) was 0.623 and the relative viability (NCI-H2009; first compound 2.53 µM) was 0.488. It also gave a relative viability (NCI-H2009; first compound 8 µM) of 0.521, a relative viability (SK-LU-1; first compound 0.08 µM) of 0.465 and a relative viability (SK-LU-1; first compound 0.253 µM) of 0.451. The relative viability (SK-LU-1; first compound 0.8 µM) was 0.454, the relative viability (SK-LU-1; first compound 2.53 µM) was 0.393 and the relative viability (SK-LU-1; first compound 8 µM) was 0.377. The relative viability (NCI-H1650; first compound 0.08 µM) was 0.802, the relative viability (NCI-H1650; first compound 0.253 µM) was 0.878 and the relative viability (NCI-H1650; first compound 0.8 µM) was 0.827. The relative viability (NCI-H1650; first compound 8 µM) was 0.818, the relative viability (NCI-H322M; first compound 0.08 µM) was 0.764 and the relative viability (NCI-H322M; first compound 0.253 µM) was 0.965. For the same compound, the relative viability (NCI-H322M; first compound 0.8 µM) was 0.754, the relative viability (NCI-H322M; first compound 8 µM) was 0.764 and the relative viability (NCI-H2087; first compound 0.08 µM) was 0.643. The relative viability (NCI-H2087; first compound 0.253 µM) was 0.626, the relative viability (NCI-H2087; first compound 0.8 µM) was 0.584 and the relative viability (NCI-H2087; first compound 2.53 µM) was 0.468. For the same compound, the relative viability (NCI-H2087; first compound 8 µM) was 0.423, the relative viability (NCI-H2126; first compound 0.08 µM) was 0.881 and the relative viability (NCI-H2126; first compound 0.253 µM) was 0.927. The relative viability (NCI-H2126; first compound 0.8 µM) was 0.858, the relative viability (NCI-H2126; first compound 2.53 µM) was 0.878 and the relative viability (NCI-H2126; first compound 8 µM) was 0.894. The relative viability (ChaGo-K-1; first compound 0.08 µM) was 0.401, the relative viability (ChaGo-K-1; first compound 0.253 µM) was 0.392 and the relative viability (ChaGo-K-1; first compound 0.8 µM) was 0.411. For the same compound, the relative viability (ChaGo-K-1; first compound 2.53 µM) was 0.358, the relative viability (ChaGo-K-1; first compound 8 µM) was 0.401 and the relative viability (BEN; first compound 0.08 µM) was 1.22. The relative viability (BEN; first compound 0.253 µM) was 1.07, the relative viability (BEN; first compound 0.8 µM) was 1.04 and the relative viability (BEN; first compound 2.53 µM) was 0.771. It also gave a relative viability (BEN; first compound 8 µM) of 0.914, a relative viability (A-427; first compound 0.08 µM) of 0.718 and a relative viability (A-427; first compound 0.253 µM) of 0.69. For the same compound, the relative viability (A-427; first compound 0.8 µM) was 0.678, the relative viability (A-427; first compound 2.53 µM) was 0.708 and the relative viability (A-427; first compound 8 µM) was 0.597. The relative viability (NCI-H441; first compound 0.08 µM) was 0.487, the relative viability (NCI-H441; first compound 0.253 µM) was 0.391 and the relative viability (NCI-H441; first compound 0.8 µM) was 0.528. For the same compound, the relative viability (NCI-H441; first compound 8 µM) was 0.486, the relative viability (EKVX; first compound 0.08 µM) was 0.811 and the relative viability (EKVX; first compound 0.253 µM) was 0.884. The relative viability (EKVX; first compound 0.8 µM) was 0.837, the relative viability (EKVX; first compound 8 µM) was 0.759 and the relative viability (NCI-H1755; first compound 0.08 µM) was 0.93. For the same compound, the relative viability (NCI-H1755; first compound 0.253 µM) was 0.872, the relative viability (NCI-H1755; first compound 0.8 µM) was 0.847 and the relative viability (NCI-H1755; first compound 2.53 µM) was 0.797. The relative viability (NCI-H1755; first compound 8 µM) was 0.846.
